From PMC6813925, “Zearalenone and ß-Zearalenol But Not Their Glucosides Inhibit Heat Shock Protein 90 ATPase Activity” (Frontiers in Pharmacology, 2019)

Legend:
ScHsp82p = biological target: T1, ScHsp82p (Saccharomyces cerevisiae, UniProt P02829); assay: biochemical; type: biochemical; conditions: for remaining ATPase activity of ScHsp82p: at 100 µM, relative to DMSO control
T1 construct: The HSP82 coding region was amplified using the primer pair HSP82-1fwd; 6xHis (N); made in house; host or cells: Escherichia coli BL21 (DE3) or phosphatase-deficient strain K894
T1 sequence (P02829 whole entry): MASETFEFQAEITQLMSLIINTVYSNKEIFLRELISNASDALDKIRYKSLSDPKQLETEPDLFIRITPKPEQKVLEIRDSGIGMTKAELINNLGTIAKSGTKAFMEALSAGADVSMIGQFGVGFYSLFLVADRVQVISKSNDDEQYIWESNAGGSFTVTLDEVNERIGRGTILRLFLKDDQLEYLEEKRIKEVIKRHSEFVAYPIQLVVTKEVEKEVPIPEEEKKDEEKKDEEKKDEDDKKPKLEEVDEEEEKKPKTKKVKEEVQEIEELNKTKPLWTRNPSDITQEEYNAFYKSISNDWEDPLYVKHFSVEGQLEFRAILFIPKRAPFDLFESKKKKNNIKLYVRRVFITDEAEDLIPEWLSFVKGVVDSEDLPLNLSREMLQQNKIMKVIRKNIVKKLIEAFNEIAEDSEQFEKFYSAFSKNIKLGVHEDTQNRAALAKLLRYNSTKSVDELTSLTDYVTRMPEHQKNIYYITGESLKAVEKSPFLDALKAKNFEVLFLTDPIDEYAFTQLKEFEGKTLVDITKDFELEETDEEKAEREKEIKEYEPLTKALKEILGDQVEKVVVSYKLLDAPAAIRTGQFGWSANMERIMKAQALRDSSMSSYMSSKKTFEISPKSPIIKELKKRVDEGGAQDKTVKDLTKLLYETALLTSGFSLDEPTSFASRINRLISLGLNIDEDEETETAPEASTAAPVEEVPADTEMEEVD
Excerpt: For initial experiments, we expressed and purified the Saccharomyces cerevisiae ScHsp82 protein. The HSP82 coding region was amplified using the primer pair HSP82-1fwd (5’-[…]-3’) and HSP82-2rev (5’-[…]-3’), which contain BamHI and HindIII sites (underlined), respectively. […] The coding region of AtHSP90.1 (At5g52640) was amplified from cDNA with the oligonucleotide primers 5’-[…]-3’ and 5’-[…]-3’. The resulting PCR product was digested with NdeI and SpeI (restriction sites on primers underlined) and introduced to pQE-80L (Qiagen), cleaved with the same enzymes to obtain the construct pQE80:AtHSP90.1. The cDNA of wheat HSP90 gene TaHSP90-2 (Triticum aestivum; DQ665784.1) was amplified with 5’-[…]-3’ and 5’-[…]-3’ (NdeI and SpeI, respectively) and introduced to pQE-80L. All constructs were verified by sequencing.
(§1) Protein production was induced by isopropyl β-D-1-thiogalactopyranoside (IPTG) following the supplier’s instructions. Protein purification was performed on an Äkta system (GE Healthcare, Uppsala, Sweden). […] Further purification was done by anion exchange chromatography on a 1 ml Resource Q column (GE Healthcare). Proteins were bound to the column in 25 mM Tris/Cl pH 7.5 and eluted with a linear gradient of 0–1 M NaCl in 15 column volumes. The obtained fractions were desalted using a Sephadex™ G-25 fine column, and the purified recombinant proteins were stored in the final elution buffer (25 mM Tris/Cl pH 7.5) at 4°C.
All compounds were dissolved in 20% DMSO and further diluted. The assays were performed in a total volume of 25 µl with a final protein concentration of 0.2 µg/µl and 4% DMSO. Controls were incubated with the solvent DMSO without inhibitor. The reactions were incubated at 37°C for 3 h in the dark.

TaHSP90-2 = TaHSP90-2 (Triticum aestivum, UniProt A0ACM8QAI9); assay: biochemical; conditions: for remaining activity at 100 µM: read-out: remaining (residual) ATPase activity of TaHSP90-2; for ATPase inhibition of TaHSP90-2: Figure 4B-D
Chain of TaHSP90-2 (A0ACM8QAI9 1-700): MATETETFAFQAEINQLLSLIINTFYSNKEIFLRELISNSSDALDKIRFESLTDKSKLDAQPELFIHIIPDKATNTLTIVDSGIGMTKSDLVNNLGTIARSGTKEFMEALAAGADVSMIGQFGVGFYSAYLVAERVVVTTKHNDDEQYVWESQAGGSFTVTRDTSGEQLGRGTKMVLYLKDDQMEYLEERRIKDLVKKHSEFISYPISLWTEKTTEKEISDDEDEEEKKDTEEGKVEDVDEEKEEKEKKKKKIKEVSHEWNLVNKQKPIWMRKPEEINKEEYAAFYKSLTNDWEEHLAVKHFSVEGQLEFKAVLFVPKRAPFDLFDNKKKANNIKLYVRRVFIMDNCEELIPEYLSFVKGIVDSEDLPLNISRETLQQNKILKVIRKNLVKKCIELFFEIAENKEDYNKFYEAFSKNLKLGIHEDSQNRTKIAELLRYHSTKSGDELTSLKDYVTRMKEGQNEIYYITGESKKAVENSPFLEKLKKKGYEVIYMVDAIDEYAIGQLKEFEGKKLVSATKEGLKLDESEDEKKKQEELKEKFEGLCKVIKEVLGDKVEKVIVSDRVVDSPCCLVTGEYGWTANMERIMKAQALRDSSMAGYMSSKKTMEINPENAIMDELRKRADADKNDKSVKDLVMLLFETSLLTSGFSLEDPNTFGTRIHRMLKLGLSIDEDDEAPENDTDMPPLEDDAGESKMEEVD
Excerpt: (§2) For initial experiments, we expressed and purified the Saccharomyces cerevisiae ScHsp82 protein. The HSP82 coding region was amplified using the primer pair HSP82-1fwd (5’-[…]-3’) and HSP82-2rev (5’-[…]-3’), which contain BamHI and HindIII sites (underlined), respectively. The resulting 2,156 bp fragment was digested with BamHI and HindIII and ligated into the expression vector pQE-80L (Qiagen) cleaved with the same enzymes yielding plasmid pGW870. The coding region of AtHSP90.1 (At5g52640) was amplified from cDNA with the oligonucleotide primers 5’-[…]-3’ and 5’-[…]-3’. The resulting PCR product was digested with NdeI and SpeI (restriction sites on primers underlined) and introduced to pQE-80L (Qiagen), cleaved with the same enzymes to obtain the construct pQE80:AtHSP90.1. The cDNA of wheat HSP90 gene TaHSP90-2 (Triticum aestivum; DQ665784.1) was amplified with 5’-[…]-3’ and 5’-[…]-3’ (NdeI and SpeI, respectively) and introduced to pQE-80L. All constructs were verified by sequencing.
as §1
(§3) The ATPase activities of recombinant proteins AtHSP90.1, TaHSP90-2, and ScHsp82 were assayed following the method of [Rowlands et al. (2004)] using an ATP concentration of 1 mM. The effect of several potential inhibitors was tested in 96-well plates using toxin concentrations ranging from 1 to 150 µM. All compounds were dissolved in 20% DMSO and further diluted. The assays were performed in a total volume of 25 µl with a final protein concentration of 0.2 µg/µl and 4% DMSO. Controls were incubated with the solvent DMSO without inhibitor. The reactions were incubated at 37°C for 3 h in the dark. After this time, the released inorganic phosphate was quantified with the malachite green colorimetric assay ([Rowlands et al., 2004]). The reaction was stopped by adding 10 µl of 34% sodium citrate to each well after 20 min incubation at room temperature, and the absorbance was measured at 620 nm.
To test whether the yeast model reflects the situation in dicot and monocots plants, AtHSP90.1 and an HSP90 protein from wheat were expressed and purified. The wheat cDNA previously named “TaHSP90-2” corresponds to UniProtKB Q0Q0I7 (Q0Q0I7_WHEAT). This gene belongs to a family of nine highly similar cytosolic HSP90 proteins of wheat, has been named HSP90.3-D1 in a functional study ([Wang et al., 2011]), and is located on chromosome 5D (= EnsemblPlants Traes_5DL_89CF7F5DE).

AtHSP90.1 [1] = biological target: T2, AtHSP90.1 (Arabidopsis thaliana, UniProt P27323); assay: HSP90 ATPase activity assay (malachite green), AtHSP90.1; type: biochemical
T2 construct: The coding region of AtHSP90.1 (At5g52640) was amplified from cDNA; 6xHis; made in house; host or cells: Escherichia coli BL21 (DE3) or phosphatase-deficient strain K894
T2 sequence (P27323 whole entry): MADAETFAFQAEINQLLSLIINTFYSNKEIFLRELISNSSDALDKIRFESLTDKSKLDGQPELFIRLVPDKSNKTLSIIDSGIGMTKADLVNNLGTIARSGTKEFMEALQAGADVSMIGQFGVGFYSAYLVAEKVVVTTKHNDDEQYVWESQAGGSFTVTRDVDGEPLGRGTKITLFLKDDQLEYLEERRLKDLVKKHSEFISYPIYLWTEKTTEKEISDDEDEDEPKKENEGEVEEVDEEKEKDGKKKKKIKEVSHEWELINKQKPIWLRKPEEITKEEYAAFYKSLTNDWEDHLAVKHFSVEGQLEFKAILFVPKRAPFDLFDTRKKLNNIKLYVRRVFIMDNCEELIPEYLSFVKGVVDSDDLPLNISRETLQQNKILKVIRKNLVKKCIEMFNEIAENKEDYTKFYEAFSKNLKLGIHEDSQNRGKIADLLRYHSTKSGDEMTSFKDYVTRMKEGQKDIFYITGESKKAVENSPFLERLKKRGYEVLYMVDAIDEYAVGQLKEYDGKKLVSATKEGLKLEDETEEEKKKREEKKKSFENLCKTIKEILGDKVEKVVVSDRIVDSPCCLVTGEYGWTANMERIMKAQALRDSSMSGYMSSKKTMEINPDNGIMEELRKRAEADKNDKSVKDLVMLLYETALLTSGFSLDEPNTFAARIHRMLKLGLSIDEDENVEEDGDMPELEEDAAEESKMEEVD
Excerpt: as §2, §1
The ATPase activities of recombinant proteins AtHSP90.1, TaHSP90-2, and ScHsp82 were assayed following the method of [Rowlands et al. (2004)] using an ATP concentration of 1 mM. […] After this time, the released inorganic phosphate was quantified with the malachite green colorimetric assay ([Rowlands et al., 2004]). The reaction was stopped by adding 10 µl of 34% sodium citrate to each well after 20 min incubation at room temperature, and the absorbance was measured at 620 nm. […]

AtHSP90.1 [2] = assay: Quantitative real-time PCR of AtHSP90.1 in seedlings; type: cell-based, Arabidopsis thaliana; conditions: 50 µM, 2 h, vs mock control DMSO, reference gene AT5G46630
Description: A. thaliana (ecotype Columbia, Col-0) seeds were surface-sterilized using sodium hypochlorite (2%) plus 0.01% Triton X for 10 min and rinsed twice with sterile water. Seeds were distributed in 24-well plates (4 wells per treatment, 30–40 seeds per well) and re-suspended in 1 ml (per well) of liquid Murashige and Skoog medium (“MS” basal salt mixture, Sigma) supplemented with 1% sucrose. After 2 days of stratification at 4°C, the plates were transferred to a growth chamber at 21°C under a 16 h light/8 h dark photoperiod.
Total RNA was extracted from 13-day-old A. thaliana (Col-0) seedlings grown in liquid MS medium supplemented with 2.5% sucrose and 50 μM ZEN for 2 h. […] RNA was quantified with the Qubit (Invitrogen) and NanoDrop (Peqlab) systems. […] Absolute and relative expression were calculated with a dilution series of purified AtHSP90.1 and AP2M PCR fragments of known molar concentration in each RT-qPCR run. […] Each sample was measured in triplicate from four independent cDNAs. […]
Figure 2 Transcriptional response of Arabidopsis thaliana HSP90 genes to zearalenone (ZEN). […] (B) Quantitative real-time PCR of A. thaliana HSP90.1 after 2 h treatment with ZEN (50 µM) or DMSO. The results are expressed as relative expression to the reference gene ADAPTOR PROTEIN-2 MU-ADAPTIN (AP2M; AT5G46630) and represent the means of four biological replicates ± standard deviation.

AtHSP90.1 [3] = system: AtHSP90.1; parameters: method as in Werner, 2005; conditions: 50 µM, 2 h, vs DMSO; ref Werner, 2005; cited from earlier work
yeast strain YZGA515 = assay: Yeast spotting assay for RAD toxicity; type: cell-based, Saccharomyces cerevisiae; conditions: multiple-ABC-transporter-deficient yeast strain, SC-LEU plates with 40 mg/L RAD
Excerpt: (§4) Previously, we had shown that AtUGT73C6, when expressed in a multiple-ABC-transporter–deficient yeast strain, leads to the production of ZEN-14-glucoside [old nomenclature ZEN-4-glucoside, [Metzler (2011)]] after ZEN treatment ([Poppenberger et al., 2006]). […] We therefore generated RAD-glucoside for in vitro tests. […] Therefore, we were unable to determine at which position RAD was glucosylated.
Spotting of YZGA515 transformants (three serial 10^−1 dilutions) expressing either AtUGT73C6 (upper row) or containing the empty vector.

[4] = Solubility and handling stability observations; type: physicochemical
Excerpt: as §4

[5] = system: Arabidopsis thaliana plants containing RPS2; parameters: method as in Takahashi et al., 2003; conditions: 10 μM; ref Takahashi et al., 2003; cited from earlier work
[6] = Stability of glucosides under ATPase assay conditions (LC-MS/MS before and after incubation); type: physicochemical; conditions: LC-MS/MS before and after incubation period, p = 0.21
Description: as §3
Likewise, we found all glucosides of ZEN, αZEL, and βZEL stable under identical conditions, with recoveries of > 88%, p > 0.05, in each case.

C[C@H]1CCC[C@H](O)CCC/C=C/c2cc(O)cc(O)c2C(=O)O1 [αZEL, α-zearalenol]
ATPase inhibition of ScHsp82p (ScHsp82p; toxin concentrations 1 to 150 µM): did not elicit a detectable response | remaining activity at 100 µM (TaHSP90-2): 71 ± 6%

C[C@H]1CCCC(=O)CCC/C=C/c2cc(O)cc(O)c2C(=O)O1 [ZEN, zearalenone]
remaining ATPase activity of ScHsp82p (ScHsp82p): 59 ± 5% | IC50 (AtHSP90.1 [1]): ~10 µM | remaining ATPase activity of AtHSP90.1 (AtHSP90.1 [1]; at 100 µM): 18 ± 6% | IC50 (TaHSP90-2): 20 µM | remaining activity at 100 µM (TaHSP90-2): 12 ± 5% | induction of AtHSP90.1 (quantitative real-time PCR) (AtHSP90.1 [2]): 35 fold | induction of AtHSP90.1 (microarray) (AtHSP90.1 [3]): about 3.7 fold

C[C@H]1CCC[C@@H](O)CCC/C=C/c2cc(O)cc(O)c2C(=O)O1 [ßZEL, ß-zearalenol]
remaining ATPase activity of ScHsp82p (ScHsp82p): 8.6 ± 2.4% | IC50 (ScHsp82p; recombinant 6xHis ScHsp82p, 1 mM ATP, 37°C, 3 h, read-out: IC50, ATPase inhibition of ScHsp82p): ~15 µM | IC50 (TaHSP90-2): ~10 µM | remaining activity at 100 µM (TaHSP90-2): 0.7 ± 3.3%

C[C@H]1CCCC(=O)CCC/C=C/c2cc(O)cc(O[C@@H]3O[C@H](CO)[C@@H](O)[C@H](O)[C@H]3O)c2C(=O)O1 [ZEN16G, zearalenone-16-O-ß-D-glucopyranoside]
ATPase inhibition of TaHSP90-2 (TaHSP90-2): did not cause activity reduction

C[C@@H]1C[C@H]2O[C@@H]2/C=C\C=C\C(=O)Cc2c(Cl)c(O)cc(O)c2C(=O)O1 [RAD, radicicol, reference compound]
toxicity to yeast strain (yeast strain YZGA515): toxic | solubility in medium ([4]; yeast culture medium): limited solubility

COC1=C2C[C@@H](C)C[C@H](OC)[C@H](O)[C@@H](C)/C=C(\C)[C@H](OC(N)=O)[C@@H](OC)/C=C\C=C(/C)C(=O)NC(=CC1=O)C2=O [geldanamycin]
hypersensitive response triggered by Pseudomonas syringae DC3000 (avrRpt2) [5]: diminished

C[C@H]1CCCC(=O)CCC/C=C/c2cc(O[C@@H]3O[C@H](CO)[C@@H](O)[C@H](O)[C@H]3O)cc(O)c2C(=O)O1 [ZEN14G, zearalenone-14-O-ß-D-glucopyranoside]
ATPase inhibition of AtHSP90.1 (AtHSP90.1 [1]; 100 µM, p = 0.75): inactive | ATPase inhibition of TaHSP90-2 (TaHSP90-2): did not cause activity reduction

radicicol-glucoside [RAD-glucoside]
change in concentration under assay conditions [6]: no significant | stability on handling ([4]; particularly when brought to dryness): appears unstable
